Reference: patent US10231939B2, “Hydroxytyrosol and oleuropein compositions for induction of DNA damage, cell death and LSD1 inhibition” (priority 2012, dated 2019)

What was measured:
Test in all cases: Cell proliferation (Cell Titer-Blue Assay)
PC3 cells = format: cell-based, human; conditions: for EC50: Homo sapiens, PC-3
Excerpt: (§1) Human chronic myelogenous leukemia K562 cells (ATCC No. CCL-243), human large B-lymphocyte non-Hodgkin's lymphoma LCL cells, human leukemic monocyte lymphoma U937 cells (ATCC No. CRL-1593.2), human prostate adenocarcinoma PC3 (ATCC No. CRL-1435) and human gastric carcinoma SNU-16 cells (ATCC No. CRL-5974) were maintained in complete-[…] Park Memorial Institute (RPMI) 1640 medium supplemented with 20 mmol/L HEPES (pH 7.4; GIBCO-Invitrogen, Carlsbad, Calif., USA), 10% (v/v) fetal bovine serum (FBS), 2 mmol/L L-glutamine (GIBCO-Invitrogen), and 80 units gentamicin (GIBCO-Invitrogen). Cells were cultured in suspension in a humidified atmosphere of 5% (v/v) CO2 at 37° C. and were maintained in exponential growth phase. For maintenance, cells were passaged twice per week and seeded at ratios 1:10. Cell proliferation was determined using the Cell Titer-Blue Assay kit (Promega, Madison, Wis., USA). Cells were seeded at 10,000 cells per well in black flat bottom 96-well plates (Nalge Nunc, Penfield, N.Y., USA) and treated with serial doses of hydroxytyrosol (0-3200 μM) and oleuropein (0-12800 μM) for 24, 48 and 120 hours at 37° C., 5% (v/v) CO2. Following incubation with the test samples, Cell-Titer Blue reagent (20 μl per 100 μL) was added to each well and mixed gently for 5 sec prior to 4 hr incubation at 37° C. in a humidified atmosphere of 5% CO2. Fluorescence intensity (λex=550 nm and λem=615 nm) was determined using a Perkin Elmer Victor3 multilabel microplate counter (PerkinElmer, Waltham, Mass., USA). Data were expressed as % relative cell viability compared to untreated cells after correction of subtracting the media control fluorescence reading.

LCL cells = format: cell-based, human; conditions: for EC50: Homo sapiens
Excerpt: as §1

MyLa CD8+ cells = format: cell-based, human; conditions: for EC50: Homo sapiens
Description: (§2) Human cutaneous T cell lymphoma MyLa cells expressing CD4^+ (ECACC No. 95051032) and CD8^+ (ECACC No. 95051033) were obtained from the European Culture Collection of Cell Cultures (ECACC; CAMR, Salisbury, UK) and maintained in complete-RPMI 1640 medium supplemented with 2 mM glutamine (GIBCO-Invitrogen), 10% (v/v) human AB serum (Lonza, Basel, Switzerland) and 100 u/mL IL-2 (Sigma-Aldrich, USA) or 100 u/mL IL-2 (Sigma-Aldrich, USA) with 100 u/mL IL-4 (R&D Systems, MN, USA) respectively. Cells were cultured in suspension in a humidified atmosphere of 5% (v/v) CO2 at 37° C. and were maintained in exponential growth phase. For maintenance, cells were passaged three times per week and seeded at ratios 1:2. Liver hepatocellular carcinoma Hep G2 cells (ATCC No. […]) were maintained in RPMI-1640 supplemented with 10% fetal bovine serum (FBS), and were cultured in 75 cm^2 T-flask and maintained at 37° C. in 5% CO2 humidified incubator. Cell proliferation was determined using the Cell Titer-Blue Assay kit (Promega, Madison, Wis., USA). Cells were seeded at 10,000 cells per well in black flat bottom 96-well plates (Nalge Nunc, Penfield, N.Y., USA) and treated with serial doses of hydroxytyrosol (0-3200 μM) and oleuropein (0-12800 μM) for 24, 48 and 120 hours at 37° C., 5% (v/v) CO2. Following incubation with the test samples, Cell-Titer Blue reagent (20 μl per 100 μL) was added to each well and mixed gently for 5 sec prior to 4 hr incubation at 37° C. in a humidified atmosphere of 5% CO2. Fluorescence intensity (λex=550 nm and λem=615 nm) was determined using a Perkin Elmer Victor3 multilabel microplate counter (PerkinElmer, Waltham, Mass., USA). Data were expressed as % relative cell viability compared to untreated cells after correction of subtracting the media control fluorescence reading.

MyLa CD4+ cells = format: cell-based, human; conditions: for EC50: Homo sapiens
Description: as §2

Hep G2 cells = format: cell-based, human; conditions: for EC50: Homo sapiens, HepG2
Description: as §2

HL-60 cells = format: cell-based, human; conditions: for EC50: Homo sapiens
Description: Human acute myeloid leukemic HL-60 cells (ATCC No. CCL-240) obtained from the ATCC were maintained in Dulbecco's modified Eagle's medium (DMEM, Gibco®, Invitrogen, Carlsbad, USA) supplemented with 20% fetal bovine serum (FBS, In Vitro Technologies, Victoria, Australia), antibody/antimycotic containing 100 U/mL Penicillin, 100 μg/mL Streptomycin, 0.25 μg/mL Amphotericin B (Invitrogen, Carlsbad, Calif., USA) and 1× GlutaMAX (Gibco, Invitrogen). Cells were cultured in suspension in a humidified atmosphere of 5% (v/v) CO2 at 37° C. and were maintained in exponential growth phase. For maintenance, cells were passaged twice per week and seeded at ratios 1:10. Cell proliferation was determined using the Cell Titer-Blue Assay kit (Promega, Madison, Wis., USA). Cells were seeded at 10,000 cells per well in black flat bottom 96-well plates (Nalge Nunc, Penfield, N.Y., USA) and treated with serial doses of hydroxytyrosol (0-3200 μM) and oleuropein (0-12800 μM) for 24, 48 and 120 hours at 37° C., 5% (v/v) CO2. Following incubation with the test samples, Cell-Titer Blue reagent (20 μl per 100 μL) was added to each well and mixed gently for 5 sec prior to 4 hr incubation at 37° C. in a humidified atmosphere of 5% CO2. Fluorescence intensity (λex=550 nm and λem=615 nm) was determined using a Perkin Elmer Victor3 multilabel microplate counter (PerkinElmer, Waltham, Mass., USA). Data were expressed as % relative cell viability compared to untreated cells after correction of subtracting the media control fluorescence reading.

SNU-16 cells = format: cell-based; conditions: Homo sapiens
Excerpt: as §1

EC50 (PC3 cells; PC3, 24 hr) [µM] | EC50 (PC3 cells; PC3, 48 hr) [µM] | EC50 (PC3 cells; PC3, 120 hr) [µM] | Compound | EC10 (concentration required to reduce the cell viability of the population to 10%) (PC3 cells; PC3, 120 hr) [µM] | EC10 (concentration required to reduce the cell viability of the population to 10%) (LCL cells; 120 hr) [µM] | EC50 (LCL cells; 24 hr) [µM] | EC50 (LCL cells; 48 hr) [µM] | EC50 (LCL cells; 120 hr) [µM] | EC10 (concentration required to reduce the cell viability of the population to 10%) (MyLa CD8+ cells; 120 hr) [µM] | EC50 (MyLa CD8+ cells; 24 hr) [µM] | EC50 (MyLa CD8+ cells; 48 hr) [µM] | EC50 (MyLa CD8+ cells; 120 hr) [µM] | EC10 (concentration required to reduce the cell viability of the population to 10%) (MyLa CD4+ cells; 120 hr) [µM] | EC50 (MyLa CD4+ cells; 24 hr) [µM] | EC50 (MyLa CD4+ cells; 48 hr) [µM] | EC50 (MyLa CD4+ cells; 120 hr) [µM] | EC10 (concentration required to reduce the cell viability of the population to 10%) (Hep G2 cells; Hep-G2, 120 hr) [µM] | EC50 (Hep G2 cells; Hep-G2, 24 hr) [µM] | EC50 (Hep G2 cells; Hep-G2, 48 hr) [µM] | EC50 (Hep G2 cells; Hep-G2, 120 hr) [µM] | also measured
2120 | 320 | 215 | OCCc1ccc(O)c(O)c1 [HT, 4-(2-hydroxyethyl)-1,2-benzenediol] | 630 | 177 | 370 | 200 | 94 | 650 | 460 | 450 | 230 | 760 | 1010 | 870 | 400 | 360 | 427 | 470 | 205 | EC10 (concentration required to reduce the cell viability of the population to 10%) (HL-60 cells; HL-60, 120 hr): 29 µM; EC50 (HL-60 cells; HL-60, 24 hr): 632 µM; EC50 (HL-60 cells; HL-60, 48 hr): 100 µM; EC50 (HL-60 cells; HL-60, 120 hr): 13 µM; EC50 (SNU-16 cells; SNU-16, 24 hr): 1100 µM; EC50 (SNU-16 cells; SNU-16, 48 hr): 80 µM
2290 | 3800 | 2500 | C/C=C1/[C@H](O[C@@H]2O[C@H](CO)[C@@H](O)[C@H](O)[C@H]2O)OC=C(C(=O)OC)[C@H]1CC(=O)OCCc1ccc(O)c(O)c1 [OL, oleuropein] | 4600 | 1240 | 403 | 1100 | 640 | 3020 | 647 | 3600 | 270 | 4800 | 647 | 3800 | 3400 | 2600 | 703 | 2400 | 1300 | EC10 (concentration required to reduce the cell viability of the population to 10%) (HL-60 cells; HL-60, 120 hr): 230 µM; EC50 (HL-60 cells; HL-60, 24 hr): 717 µM; EC50 (HL-60 cells; HL-60, 48 hr): 900 µM; EC50 (HL-60 cells; HL-60, 120 hr): 100 µM; EC50 (SNU-16 cells; SNU-16, 24 hr): 2820 µM; EC50 (SNU-16 cells; SNU-16, 48 hr): 800 µM
